Measurements: patent US4766130A, “2-phenyl-imidazopyridin-ones and also useful as cardiotonics and anti-hypertensives” (Celamerck GmbH & Co. KG, priority 1983, dated 1988)
Where a name gives a salt, the structure may show the parent alone.

Test system: anesthetized cats
Assay: Determination of the effect on blood pressure and the positive inotropic effect in anesthetized cats
Format: in vivo
Details: 2 mg/kg i.v.; for Increase in dp/dtmax in %: left ventricle contractility parameter; for Reduction in Blood Pressure in mm Hg: arterial pressure, aorta abdominalis
Protocol: Determination of the effect on blood pressure and the positive inotropic effect in anesthetized cats
The tests were carried out on cats which had been anesthetized with sodium pentobarbital (40 mg/kg i.p.). The animals breathed spontaneously. The arterial blood pressure was measured in the aorta abdominalis, using a Statham pressure transducer (P 23 Dc). To determine the positive inotropic effect, the pressure in the left ventricle was measured with a catheter-tip manometer (Millar PC-350 A). From this, the contractility parameter dp/dtmax was obtained, using an analogue differentiator. The test compounds were injected into a vena femoralis. The solvent used was physiological saline solution of Polydiol 200. Each compound was tested on at least 3 cats, dosage 2 mg/kg i.v.

COc1cc(OS(C)(=O)=O)ccc1-c1nc2nc(OS(C)(=O)=O)ccc2[nH]1 (single isomer, unassigned) [B, 2-(2-methoxy-4-methanesulfonyloxy-phenyl)-5-methanesulfonyloxy-imidazo[4,5-b]pyridine]
Duration of effective action (Half life): 37 min
Increase in dp/dtmax in %: +53%
Reduction in Blood Pressure in mm Hg (value after the slash): -42 mm Hg
Reduction in Blood Pressure in mm Hg (value before the slash): -50 mm Hg

COc1cc(OS(C)(=O)=O)ccc1-c1nc2[nH]c(=O)ncc2[nH]1 [A, 8-(2-methoxy-4-methanesulfonyloxy-phenyl)-3(1)H-purin-2-one]
Duration of effective action (Half life): 42 min
Increase in dp/dtmax in %: +48%
Reduction in Blood Pressure in mm Hg (value after the slash): -6 mm Hg
Reduction in Blood Pressure in mm Hg (value before the slash): -8 mm Hg

COc1cc(OS(C)(=O)=O)ccc1C1=NC2=CCC(=O)NC2=N1 [C, 2-(2-methoxy-4-methanesulfonyloxy-phenyl)-4H-imidazo[4,5-b]pyridin-5-one]
Duration of effective action (Half life): 31 min
Increase in dp/dtmax in %: +158%
Reduction in Blood Pressure in mm Hg (value after the slash): -54 mm Hg
Reduction in Blood Pressure in mm Hg (value before the slash): -54 mm Hg

COc1cc(OS(C)(=O)=O)ccc1-c1nc2c(=O)[nH]ccc2[nH]1 [D, 2-(2-methoxy-4-methanesulfonyloxy-phenyl)-5H-imidazo[4,5-c]pyridin-4-one hydrochloride]
Duration of effective action (Half life): 31 min
Increase in dp/dtmax in %: +117%
Reduction in Blood Pressure in mm Hg (value after the slash): -42 mm Hg
Reduction in Blood Pressure in mm Hg (value before the slash): -42 mm Hg

COc1cc(OS(C)(=O)=O)ccc1-c1nc2c(OS(C)(=O)=O)nccc2[nH]1 [E, 2-(2-methoxy-4-methanesulfonyloxy-phenyl)-4-methanesulfonyloxy-imidazo[4,5-c]pyridine]
Duration of effective action (Half life): 29 min
Increase in dp/dtmax in %: +87%
Reduction in Blood Pressure in mm Hg (value after the slash): -27 mm Hg
Reduction in Blood Pressure in mm Hg (value before the slash): -35 mm Hg

C#CCOc1ccc(-c2nc3c(=O)[nH]ccc3[nH]2)c(OC)c1 [F, 2-(2-methoxy-4-propargyloxy-phenyl)=5H-imidazo[4,5-c]pyridin-4-one]
Duration of effective action (Half life): 8 min
Increase in dp/dtmax in %: +138%
Reduction in Blood Pressure in mm Hg (value after the slash): -47 mm Hg
Reduction in Blood Pressure in mm Hg (value before the slash): -59 mm Hg

COc1cc(OS(C)(=O)=O)ccc1C1=NC2=NCC(=O)NC2=N1 [G, 2-(2-methoxy-4-methanesulfonyloxy-phenyl)-4H-imidazo[4,5-b]pyrazin-5-one]
Duration of effective action (Half life): 5 min
Increase in dp/dtmax in %: +100%
Reduction in Blood Pressure in mm Hg (value after the slash): -27 mm Hg
Reduction in Blood Pressure in mm Hg (value before the slash): -26 mm Hg
